T/C data for 18 compounds are collected here from PubChem BioAssay AID256 (DTP/NCI, 2004).

This test concerns CD2F1 mice, L1210 leukemia ip, survival T/C. Description: NCI In Vivo Anticancer Drug Screen. Data for tumor model L1210 Leukemia (intraperitoneal) in CD2F1 (CDF1) mice. The following applies: higher = longer survival. Put shortly:
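Compound-dosed mice with transplantable tumor versus matched vehicle controls; endpoint ratio T/C reported.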

[1] abbreviates: endpoint: mean survival time, dose: 100.0 mg/kg/injection, schedule: Q01DX009 (ip), vehicle: saline sonified.
Setting [2] is: endpoint: mean survival time, dose: 200.0 mg/kg/injection, schedule: Q01DX009 (ip), vehicle: saline sonified.
[3] abbreviates: endpoint: mean survival time, dose: 400.0 mg/kg/injection, schedule: Q01DX009 (ip), vehicle: saline sonified.
Where [4] appears, read: endpoint: mean survival time, dose: 100.0 mg/kg/injection, schedule: Q01DX001 (ip), vehicle: saline.
[5] abbreviates: endpoint: mean survival time, dose: 200.0 mg/kg/injection, schedule: Q01DX001 (ip), vehicle: saline.
Where [6] appears, read: endpoint: mean survival time, dose: 400.0 mg/kg/injection, schedule: Q01DX001 (ip), vehicle: saline.
[7] abbreviates: endpoint: mean survival time, dose: 12.5 mg/kg/injection, schedule: Q01DX009 (ip), vehicle: saline with Tween-80.
Where [8] appears, read: endpoint: mean survival time, dose: 25.0 mg/kg/injection, schedule: Q01DX009 (ip), vehicle: saline with Tween-80.
Setting [9] is: endpoint: mean survival time, dose: 50.0 mg/kg/injection, schedule: Q01DX009 (ip), vehicle: saline with Tween-80.
The mark [10] stands for this setting: endpoint: mean survival time, dose: 100.0 mg/kg/injection, schedule: Q01DX009 (ip), vehicle: saline with Tween-80.
[11] abbreviates: endpoint: mean survival time, dose: 100.0 mg/kg/injection, schedule: Q04DX002 (ip), vehicle: saline with Tween-80.
[12] abbreviates: endpoint: mean survival time, dose: 200.0 mg/kg/injection, schedule: Q04DX002 (ip), vehicle: saline with Tween-80.
[13] abbreviates: endpoint: mean survival time, dose: 400.0 mg/kg/injection, schedule: Q04DX002 (ip), vehicle: saline with Tween-80.

Molecules are shown by their SMILES. Inconclusive results and toxic doses are left out.

Turning to `CCSc1ncc(Br)c(Sc2nc(N)nc3nc[nH]c23)n1`, the T/C was 154 % of control (endpoint: mean survival time, dose: 6.25 mg/kg/injection, schedule: Q01DX Z (ip), vehicle: carboxymethylcellulose (CMC)); 100 % of control (endpoint: mean survival time, dose: 12.5 mg/kg/injection, schedule: Q01DX Z (ip), vehicle: carboxymethylcellulose (CMC)); 98 % of control (endpoint: mean survival time, dose: 25.0 mg/kg/injection, schedule: Q01DX Z (ip), vehicle: carboxymethylcellulose (CMC)); 87 % of control (endpoint: mean survival time, dose: 50.0 mg/kg/injection, schedule: Q01DX Z (ip), vehicle: carboxymethylcellulose (CMC)).

Consider `O=C1Cc2ccccc2C(=O)N1`, for which the T/C under setting [1] was 97 % of control, the T/C under setting [2] was 98 % of control and the T/C under setting [3] was 89 % of control.

Consider `O=[N+]([O-])c1cccc(N=C(c2ccccc2)N(O)c2ccccc2)c1`, for which the T/C under setting [4] is 100 % of control; the T/C (endpoint: mean survival time, dose: 100.0 mg/kg/injection, schedule: Q04DX003 (ip), vehicle: saline) was 102 % of control; the T/C under setting [5] was 100 % of control; the T/C (endpoint: mean survival time, dose: 200.0 mg/kg/injection, schedule: Q04DX003 (ip), vehicle: saline) was 97 % of control; the T/C under setting [6] is 100 % of control; the T/C (endpoint: mean survival time, dose: 400.0 mg/kg/injection, schedule: Q04DX003 (ip), vehicle: saline) was 103 % of control.

Turning to `N#Cc1cnn2ccn(C3OC(COC(=O)c4ccccc4)C(OC(=O)c4ccccc4)C3OC(=O)c3ccccc3)c12` (stereo not given), the T/C is 90 % of control (endpoint: median survival time, dose: 50.0 mg/kg/injection, schedule: Q01DX005 (ip), vehicle: saline with Tween-80); 98 % of control (endpoint: median survival time, dose: 100.0 mg/kg/injection, schedule: Q01DX005 (ip), vehicle: saline with Tween-80); 94 % of control (endpoint: median survival time, dose: 200.0 mg/kg/injection, schedule: Q01DX005 (ip), vehicle: saline with Tween-80).

Turning to `O=C1Nc2ccccc2C1=O`, the T/C by setting is: (endpoint: mean survival time, dose: 100.0 mg/kg/injection, schedule: Q01DX001 (ip), vehicle: Klucel (hydroxypropylcellulose) (HPC)) 96 % of control; (endpoint: mean survival time, dose: 200.0 mg/kg/injection, schedule: Q01DX001 (ip), vehicle: Klucel (hydroxypropylcellulose) (HPC)) 102 % of control; (endpoint: mean survival time, dose: 400.0 mg/kg/injection, schedule: Q01DX001 (ip), vehicle: Klucel (hydroxypropylcellulose) (HPC)) 101 % of control.

As for `Nc1nc(OCc2ccccc2)ncc1C(=O)NC(CO)C(=O)O` (stereo not given), the T/C (endpoint: mean survival time, dose: 6.25 mg/kg/injection, schedule: Q01DX009 (ip), vehicle: saline with Tween-80) is 100 % of control; the T/C under setting [7] was 98 % of control; the T/C under setting [8] was 102 % of control.

With `COC(=O)/C(Br)=C/N(Cc1ccccc1)Cc1ccccc1`, the T/C runs as follows: under setting [1], 101 % of control; (endpoint: mean survival time, dose: 100.0 mg/kg/injection, schedule: Q04DX003 (ip), vehicle: saline with Tween-80) 94 % of control; under setting [2], 101 % of control; (endpoint: mean survival time, dose: 200.0 mg/kg/injection, schedule: Q04DX003 (ip), vehicle: saline with Tween-80) 93 % of control; under setting [3], 103 % of control; (endpoint: mean survival time, dose: 400.0 mg/kg/injection, schedule: Q04DX003 (ip), vehicle: saline with Tween-80) 96 % of control.

Consider `COc1cc(OC)c(NC(=O)N2CCN(C)CC2)cc1Cl`, for which the T/C is 88 % of control under setting [9] and 94 % of control under setting [10].

Consider `Cc1cn(C2CC(O)C(CO)O2)c(=O)nc1NC1CCCCCCCCCCC1` (stereo not given), for which the T/C is, setting by setting: (endpoint: median survival time, dose: 12.5 mg/kg/injection, schedule: Q01DX005 (ip), vehicle: distilled water + Tween-80) 103 % of control; (endpoint: median survival time, dose: 25.0 mg/kg/injection, schedule: Q01DX005 (ip), vehicle: distilled water + Tween-80) 102 % of control; (endpoint: median survival time, dose: 50.0 mg/kg/injection, schedule: Q01DX005 (ip), vehicle: distilled water + Tween-80) 96 % of control; (endpoint: median survival time, dose: 100.0 mg/kg/injection, schedule: Q01DX005 (ip), vehicle: distilled water + Tween-80) 89 % of control.

As to `CCCCCCCCCCC(CCCCCCCCCC)C1CC(C)CCC1C` (stereo not given), the T/C is 94 % of control under setting [4], 97 % of control under setting [5] and 97 % of control under setting [6].

Consider `Cc1nc(C(=O)O)c(C)c(=O)[nH]1`, for which the T/C by setting is: (endpoint: mean survival time, dose: 25.0 mg/kg/injection, schedule: Q01DX005 (ip), vehicle: water) 98 % of control; (endpoint: mean survival time, dose: 50.0 mg/kg/injection, schedule: Q01DX005 (ip), vehicle: water) 104 % of control; (endpoint: mean survival time, dose: 100.0 mg/kg/injection, schedule: Q01DX005 (ip), vehicle: water) 89 % of control; (endpoint: mean survival time, dose: 200.0 mg/kg/injection, schedule: Q01DX005 (ip), vehicle: water) 87 % of control.

Consider `O=C(c1cccnc1)c1c[nH]c2ccccc12`, for which the T/C runs as follows: under setting [11], 101 % of control; under setting [12], 97 % of control; under setting [13], 97 % of control.

Turning to `CC1(C)C2CC=C(C[P+](c3ccccc3)(c3ccccc3)c3ccccc3)C1C2` (stereo not given), the T/C is 109 % of control (endpoint: mean survival time, dose: 5.0 mg/kg/injection, schedule: Q01DX009 (ip), vehicle: saline sonified); 103 % of control (endpoint: mean survival time, dose: 5.0 mg/kg/injection, schedule: Q04DX003 (ip), vehicle: saline); 92 % of control (endpoint: mean survival time, dose: 10.0 mg/kg/injection, schedule: Q04DX003 (ip), vehicle: saline); 87 % of control (endpoint: mean survival time, dose: 20.0 mg/kg/injection, schedule: Q04DX003 (ip), vehicle: saline).

With `CCCCOC(=O)COc1ccc(F)cc1`, the T/C under setting [11] was 94 % of control, the T/C under setting [12] was 94 % of control and the T/C under setting [13] is 94 % of control.

As to `O=C1OC(O)(c2ccc(Cl)cc2)C(Cc2ccccc2)=C1c1ccccc1` (stereo not given), the T/C by setting is: under setting [11], 97 % of control; under setting [12], 90 % of control; under setting [13], 102 % of control.

Consider `Cc1ccc(NC(=O)OCCSCCOC(=O)Nc2ccc(C)cc2)cc1`, for which the T/C runs as follows: (endpoint: mean survival time, dose: 100.0 mg/kg/injection, schedule: Q04DX003 (ip), vehicle: other) 93 % of control; (endpoint: mean survival time, dose: 200.0 mg/kg/injection, schedule: Q04DX003 (ip), vehicle: other) 96 % of control; (endpoint: mean survival time, dose: 400.0 mg/kg/injection, schedule: Q04DX003 (ip), vehicle: other) 93 % of control.

With `COC1=CC=C2[C@@H]3Cc4ccc(OC)c5c4[C@]2(CCN3CCO)C1O5` (stereo not given in full), the T/C is, setting by setting: (endpoint: mean survival time, dose: 25.0 mg/kg/injection, schedule: Q04DX003 (ip), vehicle: DMSO) 94 % of control; (endpoint: mean survival time, dose: 50.0 mg/kg/injection, schedule: Q04DX003 (ip), vehicle: DMSO) 96 % of control; (endpoint: mean survival time, dose: 100.0 mg/kg/injection, schedule: Q04DX003 (ip), vehicle: DMSO) 94 % of control; (endpoint: mean survival time, dose: 200.0 mg/kg/injection, schedule: Q04DX003 (ip), vehicle: DMSO) 91 % of control; (endpoint: mean survival time, dose: 400.0 mg/kg/injection, schedule: Q04DX003 (ip), vehicle: DMSO) 105 % of control.

Consider `CO[C@H]1C[C@@H]2CC[C@@H](C)[C@@](O)(O2)C(=O)C(=O)N2CCCC[C@H]2C(=O)O[C@H]([C@H](C)C[C@@H]2CC[C@@H](O)[C@H](OC)C2)CC(=O)[C@H](C)C=C(C)[C@@H](O)[C@@H](OC)C(=O)[C@H](C)C[C@H](C)/C=C/C=C/C=C1C`, for which the T/C was 107 % of control under setting [7]; 113 % of control under setting [8]; 114 % of control under setting [9]; 113 % of control (endpoint: mean survival time, dose: 100.0 mg/kg/injection, schedule: Q01DX001 (ip), vehicle: saline with Tween-80); 112 % of control under setting [10]; 111 % of control (endpoint: mean survival time, dose: 200.0 mg/kg/injection, schedule: Q01DX001 (ip), vehicle: saline with Tween-80). In addition, the T/C reads like this: (endpoint: mean survival time, dose: 200.0 mg/kg/injection, schedule: Q01DX009 (ip), vehicle: saline with Tween-80) 104 % of control; (endpoint: mean survival time, dose: 400.0 mg/kg/injection, schedule: Q01DX001 (ip), vehicle: saline with Tween-80) 120 % of control.
